# Measurements as given in ChEMBL document CHEMBL1201862, “PubChem BioAssay data set” (2004).
# Calls of active or inactive are those of the source.
# What was measured:
# HEK293 [1] = test: SAR analysis of compounds that are cytotoxic to HEK293 - Set 2. [Related pubchem assays (depositor defined):AID1575, AID1578, AID1849, AID2001, AID2333, AID2334, AID2335, AID2337, AID2800]; assay type: functional, cell-based; conditions: Homo sapiens
# Interleukin-8 [2] = target: T1, Interleukin-8 (Homo sapiens, UniProt P10145); test: SAR analysis of GM-Tri-DAP induced IL-8 secretion in MCF-7/NOD1 cells - Set 2. [Related pubchem assays (depositor defined):AID1575, AID1578, AID2333]; assay type: functional, cell-based
# T1 sequence (P10145 whole entry): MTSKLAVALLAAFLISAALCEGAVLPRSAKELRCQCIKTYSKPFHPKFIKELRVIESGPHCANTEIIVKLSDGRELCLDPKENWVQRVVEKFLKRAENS
# [3] = target: T2, Nucleotide-binding oligomerization domain-containing protein 1 (Homo sapiens, UniProt Q9Y239); test: SAR analysis of NF-kappaB dependent luciferase using DAP as an inducer - Set 2. [Related pubchem assays (depositor defined):AID1566, AID1575, AID1578, AID1579, AID1849, AID1852, AID2264]; assay type: functional
# T2 sequence (Q9Y239 whole entry): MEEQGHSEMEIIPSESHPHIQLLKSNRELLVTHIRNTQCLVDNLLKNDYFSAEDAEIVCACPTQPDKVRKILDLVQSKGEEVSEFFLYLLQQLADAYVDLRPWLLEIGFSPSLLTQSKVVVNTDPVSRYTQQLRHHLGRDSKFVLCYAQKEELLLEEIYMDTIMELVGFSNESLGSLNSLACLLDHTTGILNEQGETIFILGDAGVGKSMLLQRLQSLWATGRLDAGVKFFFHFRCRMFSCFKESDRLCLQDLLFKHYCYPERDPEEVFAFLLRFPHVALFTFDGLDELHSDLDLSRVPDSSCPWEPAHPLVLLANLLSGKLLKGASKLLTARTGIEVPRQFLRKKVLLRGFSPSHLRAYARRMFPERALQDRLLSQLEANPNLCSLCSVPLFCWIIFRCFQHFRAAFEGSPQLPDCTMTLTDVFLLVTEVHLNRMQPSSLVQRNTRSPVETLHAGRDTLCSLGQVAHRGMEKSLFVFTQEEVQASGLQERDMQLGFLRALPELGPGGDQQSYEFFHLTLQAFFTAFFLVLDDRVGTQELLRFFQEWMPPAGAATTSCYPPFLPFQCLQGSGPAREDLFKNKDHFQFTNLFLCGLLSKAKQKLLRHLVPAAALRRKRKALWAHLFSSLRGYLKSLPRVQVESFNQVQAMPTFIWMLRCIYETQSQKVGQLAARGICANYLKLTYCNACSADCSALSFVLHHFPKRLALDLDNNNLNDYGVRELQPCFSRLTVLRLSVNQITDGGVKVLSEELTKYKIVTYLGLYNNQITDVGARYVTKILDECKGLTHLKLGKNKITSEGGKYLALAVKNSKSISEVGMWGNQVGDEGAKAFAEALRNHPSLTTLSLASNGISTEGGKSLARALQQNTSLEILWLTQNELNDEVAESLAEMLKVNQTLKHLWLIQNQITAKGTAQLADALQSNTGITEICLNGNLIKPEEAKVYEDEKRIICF
# [4] = target: T3, Nucleotide-binding oligomerization domain-containing protein 2 (Homo sapiens, UniProt Q9HC29); test: inhibition of NOD2 signaling – set 2, SAR follow-up (AID 2475); assay type: functional
# [5] = target: T3, Nucleotide-binding oligomerization domain-containing protein 2; test: inhibition of MDP-driven NOD2 NF-kB reporter – cell-based, set 3, SAR follow-up (AID 2799); assay type: functional
# HEK293 [6] = test: SAR analysis of compounds that are cytotoxic to HEK293 - Set 3. [Related pubchem assays (depositor defined):AID1575, AID1578, AID1848, AID1849, AID2001, AID2333, AID2334, AID2335, AID2337, AID2469]; assay type: functional, cell-based; conditions: Homo sapiens
# Interleukin-8 [7] = target: T1, Interleukin-8; test: SAR analysis of Tumor necrosis factor alpha (TNF-alpha) induced IL-8 secretion in MCF-7/NOD1 cells - Set 2. [Related pubchem assays (depositor defined):AID1575, AID2250, AID2260]; assay type: functional, cell-based
# Tumor necrosis factor = Tumor necrosis factor (Homo sapiens, UniProt P01375); test: analog potency on TNFa NF-kB signaling – cell-based, set 3, SAR follow-up (AID 2801); assay type: functional
# [8] = target: T2, Nucleotide-binding oligomerization domain-containing protein 1; test: SAR analysis of compounds that inhibit NOD1 - Set 3. [Related pubchem assays (depositor defined):AID1566, AID1575, AID1578, AID1849, AID1852, AID2333, AID2335, AID2466]; assay type: functional
# [9] = target: T2, Nucleotide-binding oligomerization domain-containing protein 1; test: SAR analysis of compounds that inhibit NOD1 - Set 2. [Related pubchem assays (depositor defined):AID1566, AID1575, AID1578, AID1849, AID1852, AID2333, AID2335, AID2798]; assay type: functional
# [10] = target: Beta-2 adrenergic receptor (Homo sapiens, UniProt P07550); test: ADRB2 activation measured by internalization – cell-based, FAP fluorogen, flow cytometry, cherry pick 1, dose response (AID 588763); assay type: functional
# [11] = reduction of Shn3 3'UTR-driven luciferase in osteoblasts – cell-based, Clone20 osteoblasts, firefly luciferase, cherry-picked, dose response (AID 624132); assay type: functional;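 also: firefly luciferase luminescence from reporter carrying the Shn3 3'UTR in osteoblasts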
# [12] = Shn3 3'UTR reporter signal decrease – cell-based, Clone20 osteoblasts, firefly luciferase, cherry-pick, set 2, Schnurri-3 inhibitor project, dose response (AID 720490); assay type: functional;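 also: actives lower the luminescence signal as inhibitors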
# [13] = non-specific 3'UTR reporter inhibition in Clone20-Shn3RL – cell-based, Renilla luciferase, cherry-picked, counter-screen for Shn3 inhibitor project, dose response (AID 624133); assay type: functional
# [14] = target: Voltage-gated inwardly rectifying potassium channel KCNH2 (Homo sapiens, UniProt Q12809); conditions: Potency;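 also: confirmatory quantitative high-throughput screen measuring inhibition of hERG channel activity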
# Cytochrome P450 3A4 = Cytochrome P450 3A4 (Homo sapiens, UniProt P08684);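 also: CYP3A4 tested as one member of a cytochrome P450 panel screen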
# Cytochrome P450 1A2 = target: T4, Cytochrome P450 1A2 (Homo sapiens, UniProt P05177);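 also: PubChem cytochrome P450 panel assay, CYP1A2 panel member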
# T4 sequence (P05177 whole entry): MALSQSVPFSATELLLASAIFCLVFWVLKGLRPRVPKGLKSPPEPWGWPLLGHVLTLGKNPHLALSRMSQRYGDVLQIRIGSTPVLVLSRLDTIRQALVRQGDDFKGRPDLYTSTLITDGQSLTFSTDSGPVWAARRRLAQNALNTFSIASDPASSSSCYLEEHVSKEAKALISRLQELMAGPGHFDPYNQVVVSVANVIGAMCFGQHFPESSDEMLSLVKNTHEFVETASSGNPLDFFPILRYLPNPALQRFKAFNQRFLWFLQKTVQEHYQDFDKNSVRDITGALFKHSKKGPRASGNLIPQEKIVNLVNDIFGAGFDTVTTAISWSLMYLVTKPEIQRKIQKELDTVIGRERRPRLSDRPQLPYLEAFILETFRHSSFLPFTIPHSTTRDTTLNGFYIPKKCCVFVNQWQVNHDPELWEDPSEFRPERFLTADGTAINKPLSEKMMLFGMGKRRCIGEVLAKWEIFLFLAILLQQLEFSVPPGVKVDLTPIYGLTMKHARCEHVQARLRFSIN
# Cytochrome P450 2C9 = Cytochrome P450 2C9 (Homo sapiens, UniProt P11712)
# Cytochrome P450 2C19 = Cytochrome P450 2C19 (Homo sapiens, UniProt P33261); test: Cytochrome panel assay with activity outcomes. Panel member name: p450-cyp2c19 Compounds with AC50 equal or less than 10 uM are considered active; assay type: functional
# Cytochrome P450 2D6 = Cytochrome P450 2D6 (Homo sapiens, UniProt P10635);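 also: CYP2D6 member of a cytochrome P450 panel assay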
# HEK293 [15] = test: cells; conditions: Homo sapiens
# HEK293 [16] = test: cells; conditions: Homo sapiens; remark: listed apart in the source
# [17] = viability of PTEN-deleted HCT116 cells – cell-based, HCT116 PTEN knockout, dose response (AID 1047); assay type: functional;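 also: HCT116 colon tumor cells with PTEN knocked out; cells exposed to compound for 60 hours before readout; potency for loss of cell viability measured by luminescence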
# [18] = viability of HCT116 lacking mutant beta-catenin – cell-based, human colon tumor, dose response (AID 1045); assay type: functional;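 also: HCT116 colon tumor cells with beta catenin knocked out; cells exposed to compound for 60 hours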
# T3 sequence (Q9HC29 whole entry, the tested form may be a part): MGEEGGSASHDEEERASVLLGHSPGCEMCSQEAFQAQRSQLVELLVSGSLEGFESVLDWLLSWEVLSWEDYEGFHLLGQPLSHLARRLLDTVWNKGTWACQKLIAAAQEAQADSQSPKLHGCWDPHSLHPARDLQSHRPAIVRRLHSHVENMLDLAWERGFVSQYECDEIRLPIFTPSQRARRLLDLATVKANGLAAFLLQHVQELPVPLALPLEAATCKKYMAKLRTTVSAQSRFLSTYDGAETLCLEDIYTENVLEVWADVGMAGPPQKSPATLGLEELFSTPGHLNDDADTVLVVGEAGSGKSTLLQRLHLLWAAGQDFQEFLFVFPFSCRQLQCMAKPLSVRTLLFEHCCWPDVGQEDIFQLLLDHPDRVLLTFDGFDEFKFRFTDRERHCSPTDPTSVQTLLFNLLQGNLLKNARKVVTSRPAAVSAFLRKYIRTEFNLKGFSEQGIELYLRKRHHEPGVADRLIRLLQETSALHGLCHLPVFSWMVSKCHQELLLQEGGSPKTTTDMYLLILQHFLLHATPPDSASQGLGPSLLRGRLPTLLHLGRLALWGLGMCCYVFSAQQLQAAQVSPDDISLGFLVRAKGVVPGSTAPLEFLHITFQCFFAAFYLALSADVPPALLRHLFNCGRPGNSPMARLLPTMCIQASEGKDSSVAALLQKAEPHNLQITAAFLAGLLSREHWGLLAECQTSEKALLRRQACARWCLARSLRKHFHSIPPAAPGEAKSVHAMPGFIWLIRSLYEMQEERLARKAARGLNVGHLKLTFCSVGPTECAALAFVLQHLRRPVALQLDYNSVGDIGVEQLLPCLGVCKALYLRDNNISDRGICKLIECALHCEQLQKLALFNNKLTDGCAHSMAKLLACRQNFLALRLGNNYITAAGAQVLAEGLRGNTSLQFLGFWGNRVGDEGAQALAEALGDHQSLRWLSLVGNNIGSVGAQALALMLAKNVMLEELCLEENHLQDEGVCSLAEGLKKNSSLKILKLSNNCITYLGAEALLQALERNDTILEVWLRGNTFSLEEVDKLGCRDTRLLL
# Chain of Beta-2 adrenergic receptor (P07550 whole entry): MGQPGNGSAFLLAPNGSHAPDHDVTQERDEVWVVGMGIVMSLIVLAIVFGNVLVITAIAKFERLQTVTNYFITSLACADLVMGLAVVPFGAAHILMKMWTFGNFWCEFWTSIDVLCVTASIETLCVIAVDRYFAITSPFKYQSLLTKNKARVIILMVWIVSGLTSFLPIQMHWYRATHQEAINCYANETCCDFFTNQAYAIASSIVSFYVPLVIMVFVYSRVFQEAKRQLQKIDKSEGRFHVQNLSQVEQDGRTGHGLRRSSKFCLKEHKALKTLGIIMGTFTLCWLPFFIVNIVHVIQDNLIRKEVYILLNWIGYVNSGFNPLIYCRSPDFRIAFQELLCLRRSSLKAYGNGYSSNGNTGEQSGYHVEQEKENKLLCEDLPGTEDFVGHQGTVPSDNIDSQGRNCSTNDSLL
# Chain of Tumor necrosis factor (P01375 whole entry, the tested form may be a part): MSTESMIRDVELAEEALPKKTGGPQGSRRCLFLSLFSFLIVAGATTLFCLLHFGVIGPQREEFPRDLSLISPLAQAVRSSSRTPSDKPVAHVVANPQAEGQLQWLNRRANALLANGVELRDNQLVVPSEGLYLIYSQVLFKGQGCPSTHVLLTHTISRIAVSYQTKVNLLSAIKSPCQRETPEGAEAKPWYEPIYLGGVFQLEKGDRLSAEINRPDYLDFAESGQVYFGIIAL
# Chain of Cytochrome P450 2C9 (P11712 whole entry): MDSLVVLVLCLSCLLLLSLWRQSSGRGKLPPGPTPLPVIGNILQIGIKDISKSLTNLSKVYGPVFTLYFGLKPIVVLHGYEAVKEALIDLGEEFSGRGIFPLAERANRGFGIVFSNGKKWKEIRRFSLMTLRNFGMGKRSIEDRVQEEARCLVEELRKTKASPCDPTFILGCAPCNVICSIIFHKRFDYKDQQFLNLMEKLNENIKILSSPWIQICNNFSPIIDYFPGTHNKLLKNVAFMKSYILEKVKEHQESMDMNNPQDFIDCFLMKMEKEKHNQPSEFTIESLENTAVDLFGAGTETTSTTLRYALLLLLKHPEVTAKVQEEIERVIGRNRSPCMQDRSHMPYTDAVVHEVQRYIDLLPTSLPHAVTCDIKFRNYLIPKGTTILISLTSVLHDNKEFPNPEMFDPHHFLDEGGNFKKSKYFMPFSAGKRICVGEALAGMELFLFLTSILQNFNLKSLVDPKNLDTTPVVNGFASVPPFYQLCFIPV
# Chain of Cytochrome P450 2D6 (P10635 whole entry): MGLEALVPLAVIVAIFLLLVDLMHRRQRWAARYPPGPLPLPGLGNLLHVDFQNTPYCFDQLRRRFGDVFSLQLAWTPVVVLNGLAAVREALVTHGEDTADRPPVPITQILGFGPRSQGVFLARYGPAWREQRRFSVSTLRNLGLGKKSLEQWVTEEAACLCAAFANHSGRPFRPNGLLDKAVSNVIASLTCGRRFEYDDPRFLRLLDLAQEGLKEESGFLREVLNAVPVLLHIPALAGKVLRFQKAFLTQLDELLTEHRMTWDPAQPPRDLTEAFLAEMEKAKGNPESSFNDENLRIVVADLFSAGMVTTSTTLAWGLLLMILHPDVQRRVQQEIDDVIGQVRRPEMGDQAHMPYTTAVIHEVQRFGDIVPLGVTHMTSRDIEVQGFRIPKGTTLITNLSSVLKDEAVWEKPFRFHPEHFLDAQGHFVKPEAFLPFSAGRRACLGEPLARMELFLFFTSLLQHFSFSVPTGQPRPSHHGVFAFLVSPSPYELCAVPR
# Chain of Cytochrome P450 2C19 (P33261 whole entry): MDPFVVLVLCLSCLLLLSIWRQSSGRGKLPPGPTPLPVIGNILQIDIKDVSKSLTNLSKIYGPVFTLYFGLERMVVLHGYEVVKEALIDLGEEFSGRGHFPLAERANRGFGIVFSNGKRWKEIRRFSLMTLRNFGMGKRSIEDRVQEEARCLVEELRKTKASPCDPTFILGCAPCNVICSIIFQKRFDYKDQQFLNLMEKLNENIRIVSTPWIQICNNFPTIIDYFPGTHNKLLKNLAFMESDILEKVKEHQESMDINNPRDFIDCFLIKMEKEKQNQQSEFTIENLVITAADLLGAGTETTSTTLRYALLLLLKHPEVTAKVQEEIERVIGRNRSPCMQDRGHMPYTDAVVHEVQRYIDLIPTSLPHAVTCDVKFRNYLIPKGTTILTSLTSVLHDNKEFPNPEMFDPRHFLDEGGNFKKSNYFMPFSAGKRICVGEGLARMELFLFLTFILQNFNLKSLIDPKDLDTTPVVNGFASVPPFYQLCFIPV
# Chain of Voltage-gated inwardly rectifying potassium channel KCNH2 (Q12809 whole entry): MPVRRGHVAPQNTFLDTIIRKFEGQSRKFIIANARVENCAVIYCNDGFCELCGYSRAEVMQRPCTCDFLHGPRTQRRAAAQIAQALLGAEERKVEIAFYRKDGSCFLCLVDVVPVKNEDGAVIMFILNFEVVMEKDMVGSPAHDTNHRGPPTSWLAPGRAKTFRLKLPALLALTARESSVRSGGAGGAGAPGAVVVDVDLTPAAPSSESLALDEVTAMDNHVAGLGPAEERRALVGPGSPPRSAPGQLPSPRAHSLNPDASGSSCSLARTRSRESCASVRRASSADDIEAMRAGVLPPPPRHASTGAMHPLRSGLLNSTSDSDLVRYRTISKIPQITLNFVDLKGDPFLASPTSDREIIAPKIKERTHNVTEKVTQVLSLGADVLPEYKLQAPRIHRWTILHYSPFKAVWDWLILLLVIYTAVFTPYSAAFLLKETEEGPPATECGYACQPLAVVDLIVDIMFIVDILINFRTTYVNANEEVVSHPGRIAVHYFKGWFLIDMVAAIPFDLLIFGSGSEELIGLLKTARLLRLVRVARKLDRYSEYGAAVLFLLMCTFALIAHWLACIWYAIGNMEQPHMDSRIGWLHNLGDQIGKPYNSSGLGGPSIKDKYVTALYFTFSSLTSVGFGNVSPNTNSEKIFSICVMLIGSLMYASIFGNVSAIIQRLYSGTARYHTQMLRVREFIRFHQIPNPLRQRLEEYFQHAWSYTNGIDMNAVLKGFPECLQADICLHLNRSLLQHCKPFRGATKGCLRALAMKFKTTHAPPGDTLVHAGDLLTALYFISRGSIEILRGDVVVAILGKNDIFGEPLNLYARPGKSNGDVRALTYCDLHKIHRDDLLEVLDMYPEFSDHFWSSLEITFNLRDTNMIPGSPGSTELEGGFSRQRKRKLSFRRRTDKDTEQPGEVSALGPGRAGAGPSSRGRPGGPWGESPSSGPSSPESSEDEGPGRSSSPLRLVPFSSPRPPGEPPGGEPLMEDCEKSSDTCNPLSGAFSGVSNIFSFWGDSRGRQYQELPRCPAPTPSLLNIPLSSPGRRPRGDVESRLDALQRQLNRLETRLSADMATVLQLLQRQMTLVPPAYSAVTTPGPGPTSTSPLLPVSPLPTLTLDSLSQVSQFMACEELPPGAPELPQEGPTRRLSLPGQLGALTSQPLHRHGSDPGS
# Chain of Cytochrome P450 3A4 (P08684 whole entry): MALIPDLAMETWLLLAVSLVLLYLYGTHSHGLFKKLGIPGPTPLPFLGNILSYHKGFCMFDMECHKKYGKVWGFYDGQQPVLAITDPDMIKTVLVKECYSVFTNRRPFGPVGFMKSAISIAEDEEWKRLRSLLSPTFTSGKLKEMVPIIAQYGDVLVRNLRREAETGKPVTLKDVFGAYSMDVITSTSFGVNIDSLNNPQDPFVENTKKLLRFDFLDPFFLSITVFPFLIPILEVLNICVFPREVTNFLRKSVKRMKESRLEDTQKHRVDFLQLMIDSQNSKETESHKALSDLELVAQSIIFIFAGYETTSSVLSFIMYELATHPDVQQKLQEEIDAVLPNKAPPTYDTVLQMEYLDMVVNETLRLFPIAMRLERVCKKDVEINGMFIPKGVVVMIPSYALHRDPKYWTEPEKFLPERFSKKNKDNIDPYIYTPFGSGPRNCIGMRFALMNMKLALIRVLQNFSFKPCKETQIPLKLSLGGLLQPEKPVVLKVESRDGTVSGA
smiles,measurement,setting,value
CCCn1c(SCC(=O)Nc2nc3c(s2)CCCC3)nc2c1c(=O)n(C)c(=O)n2C,IC50,HEK293 [1],> 20 µM (inactive)
same,IC50,Interleukin-8 [2],> 25 µM (inactive)
same,IC50,[3],> 25 µM (inactive)
same,IC50,[4],1.98 µM (active)
same,IC50,[5],1.2 µM (active)
same,IC50,HEK293 [6],> 20 µM (inactive)
same,IC50,Interleukin-8 [7],> 25 µM (inactive)
same,IC50,Tumor necrosis factor,2.12 µM (active)
same,IC50,[8],1.36 µM (active)
same,IC50,[9],1.63 µM (active)
C/C=C/Cn1c(SCc2ccc(Cl)cc2)nc2c1c(=O)[nH]c(=O)n2C,IC50,HEK293 [1],> 20 µM (inactive)
same,IC50,Interleukin-8 [2],> 25 µM (inactive)
same,IC50,[3],> 25 µM (inactive)
same,IC50,[4],13.7 µM (active)
same,IC50,[5],> 20 µM (inactive)
same,IC50,HEK293 [6],> 20 µM (inactive)
same,IC50,Interleukin-8 [7],> 25 µM (inactive)
same,IC50,Tumor necrosis factor,> 20 µM (inactive)
same,IC50,[8],> 20 µM (inactive)
same,IC50,[9],14.7 µM (active)
COc1ccccc1OCCCC(=O)Nc1nccs1,EC50,[10],5.11 µM (active)
Cc1ccc(-c2nc3ncccc3o2)cc1NC(=O)c1sc2ccccc2c1Cl,AC50,[11],5.87 µM (active)
same,AC50,[12],11.8 µM (active)
same,EC50,[10],0.722 µM (active)
same,AC50,[13],36.5 µM (active)
Nc1nc2c(nc(Br)n2C2O[C@H]3CO[P@@](=O)(O)O[C@@H]3C2O)c(=O)[nH]1 (stereo not given in full),AC50,[14],5.62 µM (inconclusive)
c1ccc(C(c2ccccc2)N2CC3(CCNCC3)C2)cc1,AC50,Cytochrome P450 3A4,inconclusive
same,AC50,Cytochrome P450 1A2,15.8 µM (inconclusive)
same,AC50,Cytochrome P450 2C9,39.8 µM (inconclusive)
O=C(O)CC1(C(=O)O)CCCCC1,AC50,Cytochrome P450 2C19,inconclusive
same,AC50,Cytochrome P450 2D6,inconclusive
COc1ccc(-c2[nH]c(-c3ccc(Cl)cc3)nc2SCC(=O)Nc2nccs2)cc1,EC50,HEK293 [15],> 59.7 µM (inactive)
same,EC50,HEK293 [16],> 59.7 µM (inactive)
same,EC50,[17],15.9 µM (active)
same,EC50,[18],15.3 µM (active)
